Results on 14 compounds are retold here after ChEMBL document CHEMBL1201862, “PubChem BioAssay data set” (2004).

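Where inhibition never reached the appropriate level, the endpoint shown equals the highest concentration tested. Otherwise, values were interpolated linearly from a five-concentration, 48-hour dose response in 96-well plates. At the GI50, growth is halved.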 Activity calls are given as the source filed them. Rule as the data show it: active = GI50 up to about 1.1 µM and inactive = higher.

Some test systems named below: SW-620; DLD-1; ACHN; XF498; CCRF-CEM; KM12; SR; NCI-H522; HCT-15; OVCAR-4; OVCAR-5; TK-10; LXFL 529; M19-MEL; Malme-3M; HOP-18; PC-3; MDA-N; DU-145; BT-549.
What all share (experiment): inhibition of tumour cell growth, NCI panel, 48 h

Regarding `O=c1c2ccccc2[nH]c2c(O)ccc(O)c12`, the GI50 in the experiment on SW-620 is 18 µM (inactive); with DLD-1 it was > 10 µM (inactive); in the experiment with ACHN it was 17.3 µM (inactive); in the experiment on XF498, 16.8 µM (inactive); in the experiment on CCRF-CEM, 5.58 µM (inactive); with KM12, 45.1 µM (inactive). Also, the GI50 in the experiment with SR was 7.33 µM (inactive); in the experiment on NCI-H522, 15.1 µM (inactive); in the experiment on HCT-15, 17.9 µM; in the experiment with OVCAR-4 it was 3.39 µM (inactive); in the experiment on OVCAR-5 it was > 76.9 µM (inactive); with TK-10, 26.3 µM (inactive). Besides, the figures for the GI50 in the experiment with LXFL 529, in the experiment with M19-MEL and in the experiment on Malme-3M were 15.1 µM (inactive), 24.9 µM (inactive) and 24 µM (inactive), respectively.

Consider `O=C(CCc1cc(-c2ccco2)n(-c2ccc([N+](=O)[O-])cc2[N+](=O)[O-])n1)Nc1ccccc1`, for which the GI50 with SW-620 is > 100 µM (inactive); in the experiment on DLD-1 it was > 100 µM (inactive); in the experiment with ACHN, > 100 µM (inactive); in the experiment with XF498 it was > 100 µM (inactive); in the experiment on CCRF-CEM, 61 µM (inactive); in the experiment on KM12, > 100 µM (inactive). Besides, the GI50 in the experiment with SR was > 100 µM (inactive); with NCI-H522 it was > 100 µM (inactive); in the experiment with HCT-15, more than 100 µM; with OVCAR-4, > 100 µM (inactive); in the experiment on OVCAR-5, > 100 µM (inactive); in the experiment on LXFL 529, > 100 µM (inactive). The GI50 was > 100 µM (inactive) with M19-MEL and 32.8 µM (inactive) in the experiment with Malme-3M.

Consider `COc1ccc(CN(CCN(C)C)c2ccccn2)cc1.Cn1c(=O)c2[nH]c(Br)nc2n(C)c1=O`, for which the GI50 with SW-620, in the experiment on DLD-1, in the experiment on ACHN, in the experiment on XF498, in the experiment with CCRF-CEM and with KM12 was > 100 µM (inactive) throughout. The GI50 was > 100 µM (inactive) with HOP-18; > 100 µM (inactive) with NCI-H522; 71.6 µM in the experiment with HCT-15; > 100 µM (inactive) in the experiment with OVCAR-5; > 100 µM (inactive) in the experiment on TK-10; > 100 µM (inactive) in the experiment on LXFL 529. In addition, the GI50 with Malme-3M was > 100 µM (inactive).

Consider `O=C1OC(c2ccccc2)=N/C1=C/NC(Cc1c[nH]cn1)C(=O)O` (stereo not drawn), for which the GI50 in the experiment with SW-620, in the experiment on DLD-1, in the experiment with ACHN, in the experiment on XF498, in the experiment with CCRF-CEM and with SR was > 100 µM (inactive) each time. The GI50 was > 100 µM (inactive) with NCI-H522; more than 100 µM in the experiment with HCT-15; > 100 µM (inactive) with OVCAR-4; > 100 µM (inactive) with OVCAR-5; > 100 µM (inactive) in the experiment with TK-10; > 100 µM (inactive) with LXFL 529. The GI50 with M19-MEL and in the experiment on Malme-3M was > 100 µM (inactive) throughout.

For `O=C1CCC2(c3ccc(F)cc3)Nc3ncccc3N12` (stereo not drawn), the GI50 in the experiment on SW-620, in the experiment with DLD-1, in the experiment on ACHN, in the experiment with XF498, in the experiment with CCRF-CEM and with KM12 was > 100 µM (inactive) throughout. Besides, the GI50 in the experiment with NCI-H522 is > 100 µM (inactive); with HCT-15, more than 100 µM; in the experiment on OVCAR-4, > 100 µM (inactive); with OVCAR-5, > 100 µM (inactive); in the experiment on TK-10, > 100 µM (inactive); with LXFL 529 it was > 100 µM (inactive). Further, the GI50 in the experiment on M19-MEL and with Malme-3M was > 100 µM (inactive) in each case.

Regarding `CC1=C(O)C(=O)C2C(=O)C1C(C)C2c1ccc(Cl)cc1` (stereo not drawn), the GI50 in the experiment on SW-620, with DLD-1, in the experiment with ACHN, with XF498, with CCRF-CEM and in the experiment with KM12 was > 100 µM (inactive) in each case. Further, the GI50 in the experiment on SR is > 100 µM (inactive); with NCI-H522, > 100 µM (inactive); with HCT-15 it was more than 100 µM; in the experiment on OVCAR-4 it was > 100 µM (inactive); in the experiment on OVCAR-5, > 100 µM (inactive); with TK-10 it was > 100 µM (inactive). In addition, the GI50 in the experiment with LXFL 529, with M19-MEL and in the experiment with Malme-3M was > 100 µM (inactive) each time.

For the compound `O=C(CC1Sc2ccccc2NC1=O)Nc1cccc(Cl)c1` (stereo not drawn), the GI50 is 34.4 µM (inactive) in the experiment on SW-620; 48.4 µM (inactive) with DLD-1; 31.8 µM (inactive) in the experiment on ACHN; 28 µM (inactive) in the experiment with XF498; 40.4 µM (inactive) in the experiment with CCRF-CEM; 34 µM (inactive) in the experiment with SR. The GI50 was 40.6 µM in the experiment with HCT-15; 44.8 µM (inactive) with OVCAR-4; > 100 µM (inactive) with OVCAR-5; 41.9 µM (inactive) in the experiment with TK-10; 42.1 µM (inactive) in the experiment on LXFL 529; 81.5 µM (inactive) with M19-MEL. Moreover, the GI50 in the experiment with Malme-3M is 55.2 µM (inactive).

`CS(=O)(=O)c1nc(Cl)c(Cl)c(C#N)c1Cl`: the GI50 is 1.14 µM (inactive) in the experiment with SW-620; 1.59 µM (inactive) in the experiment on DLD-1; 2.6 µM (inactive) in the experiment with ACHN; 3.09 µM (inactive) in the experiment with XF498; 0.998 µM (active) in the experiment with CCRF-CEM; 5.35 µM (inactive) in the experiment on PC-3. For the same compound, the GI50 with MDA-N is 1.83 µM (inactive); in the experiment on KM12, 6.97 µM (inactive); in the experiment on HOP-18 it was 6.1 µM (inactive); in the experiment with SR, 0.736 µM (active); in the experiment with NCI-H522, 0.322 µM (active); in the experiment with HCT-15, 1.61 µM. The GI50 with OVCAR-4 was 1.96 µM (inactive); with OVCAR-5, 4.39 µM (inactive); in the experiment with TK-10, 3.18 µM (inactive); with LXFL 529, 1.57 µM (inactive); in the experiment on DU-145, 11.4 µM (inactive); in the experiment with BT-549, 1.9 µM (inactive). Besides, the GI50 in the experiment on Malme-3M is 2.3 µM (inactive).

Turning to `COc1ccc(/C(Cl)=C(\C=O)c2ccc([N+](=O)[O-])cc2)cc1`, the GI50 in the experiment on SW-620 was 4.34 µM (inactive); in the experiment on DLD-1, 16.7 µM (inactive); in the experiment with ACHN it was 18.5 µM (inactive); with XF498, 14.8 µM (inactive); in the experiment with CCRF-CEM, 4.1 µM (inactive); in the experiment on KM12 it was 2.4 µM (inactive). The GI50 with HOP-18 was 34.9 µM (inactive); with NCI-H522 it was 4.36 µM (inactive); in the experiment on HCT-15, 5.25 µM; in the experiment on OVCAR-4, 17.5 µM (inactive); with OVCAR-5 it was > 100 µM (inactive); with TK-10, 30.1 µM (inactive). For the same compound, the results for the GI50 with LXFL 529 and with Malme-3M were 3.27 µM (inactive) and 15.6 µM (inactive), respectively.

On to `CC1(C)COC(c2c(-c3ccccc3)noc2C[S+]([O-])c2ccccc2)=N1` (stereo not drawn), for which the GI50 in the experiment with SW-620 was > 100 µM (inactive); with DLD-1 it was > 100 µM (inactive); in the experiment on ACHN, 40 µM (inactive); in the experiment with CCRF-CEM it was 29.2 µM (inactive); with KM12, 36.1 µM (inactive); in the experiment with HOP-18, 24.9 µM (inactive). Also, the GI50 in the experiment on SR is 29.1 µM (inactive); in the experiment on NCI-H522 it was 36.1 µM (inactive); in the experiment on HCT-15, 27.4 µM; in the experiment with OVCAR-4 it was 62.8 µM (inactive); in the experiment with OVCAR-5 it was > 100 µM (inactive); with TK-10, > 100 µM (inactive). Also, the GI50 in the experiment on LXFL 529 was 30.2 µM (inactive); with M19-MEL, 45.1 µM (inactive); in the experiment on Malme-3M, 46.1 µM (inactive).

Turning to `CC(C)(C)[Si](C)(C)OC1C(=O)C[C@H]2CCCC[C@@H]12` (stereo partly drawn), the GI50 with SW-620, in the experiment on DLD-1, in the experiment on ACHN, in the experiment with XF498, with CCRF-CEM and in the experiment with KM12 was > 100 µM (inactive) in each case. In addition, the GI50 in the experiment with HOP-18 is > 100 µM (inactive); with HCT-15, more than 100 µM; in the experiment with OVCAR-4 it was > 100 µM (inactive); with OVCAR-5 it was > 100 µM (inactive); with TK-10 it was > 100 µM (inactive); in the experiment on LXFL 529, > 100 µM (inactive). In addition, the figures for the GI50 in the experiment with M19-MEL and in the experiment with Malme-3M were 87.9 µM (inactive) and > 100 µM (inactive), respectively.

Regarding `C=C1C(=O)OC2C[C@H](C)C3CC(=O)C(C)=C3CC12` (stereo partly drawn), the GI50 in the experiment on SW-620 is 4.81 µM (inactive); with DLD-1, 7.38 µM (inactive); with ACHN, 12.1 µM (inactive); in the experiment with XF498, 16.5 µM (inactive); in the experiment on CCRF-CEM it was 3.44 µM (inactive); with KM12 it was 16 µM (inactive). Also, the GI50 with SR is 5.56 µM (inactive); in the experiment on NCI-H522, 1.75 µM (inactive); in the experiment on HCT-15, 11.2 µM; in the experiment on OVCAR-4, 14.2 µM (inactive); in the experiment on OVCAR-5, 15.1 µM (inactive); in the experiment on TK-10, 15.8 µM (inactive). Moreover, the results for the GI50 in the experiment with LXFL 529, in the experiment on M19-MEL and with Malme-3M were 10.6 µM (inactive), 13.2 µM (inactive) and 11.8 µM (inactive), respectively.

`CCCCCC/C=C1\CCC(CN2CCOCC2)C1=O` (stereo not drawn): the GI50 in the experiment with SW-620 was 8.2 µM (inactive); in the experiment on DLD-1, 10.5 µM (inactive); in the experiment with ACHN it was 17.4 µM (inactive); in the experiment on XF498 it was 16.1 µM (inactive); in the experiment with CCRF-CEM, 3.24 µM (inactive); in the experiment on KM12, 7.64 µM (inactive). Further, the GI50 in the experiment on HOP-18 is 0.807 µM (active); with SR, 4.31 µM (inactive); in the experiment on NCI-H522 it was 7.87 µM (inactive); in the experiment with HCT-15 it was 8.67 µM; in the experiment on OVCAR-4, 20.4 µM (inactive); in the experiment on OVCAR-5, 20.3 µM (inactive). Also, the GI50 with TK-10 is 13.4 µM (inactive); in the experiment with LXFL 529, 3.3 µM (inactive); with Malme-3M, 16.3 µM (inactive).

On to `NC1CCC[C@H]1O` (stereo partly drawn), for which the GI50 with SW-620, with DLD-1, with ACHN, in the experiment with XF498, in the experiment on CCRF-CEM and in the experiment with KM12 was > 100 µM (inactive) each time. Also, the GI50 in the experiment with HOP-18 is > 100 µM (inactive); in the experiment on NCI-H522, > 100 µM (inactive); in the experiment with HCT-15, more than 100 µM; in the experiment with OVCAR-4 it was > 100 µM (inactive); with TK-10, > 100 µM (inactive); with M19-MEL, > 100 µM (inactive). Besides, in the experiment on Malme-3M, the GI50 was > 100 µM (inactive).
